Tests used:
[1] = molecular target: T1, Histone deacetylase 8 (Homo sapiens) (UniProt Q9BY41); assay: Activation of human HDAC8 deacetylation activity at 50 uM using AMC less CH3CONH-FG-(Nepsilon-acetyl-lysine)-FSW-CONH2 as substrate measured after 10 mins by reverse phase HPLC method relative to control
T1 sequence (whole entry): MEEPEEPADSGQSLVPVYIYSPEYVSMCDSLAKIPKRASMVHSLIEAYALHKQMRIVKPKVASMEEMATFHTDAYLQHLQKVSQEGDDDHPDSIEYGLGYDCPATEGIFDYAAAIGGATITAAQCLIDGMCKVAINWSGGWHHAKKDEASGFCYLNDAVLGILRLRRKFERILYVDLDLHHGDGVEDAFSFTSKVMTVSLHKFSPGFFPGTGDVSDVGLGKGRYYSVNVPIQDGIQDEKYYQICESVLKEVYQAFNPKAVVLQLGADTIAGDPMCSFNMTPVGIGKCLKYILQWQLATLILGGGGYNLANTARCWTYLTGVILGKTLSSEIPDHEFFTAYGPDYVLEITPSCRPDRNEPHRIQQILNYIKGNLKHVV

[2] = molecular target: T1, Histone deacetylase 8 (Homo sapiens); assay: Activation of human HDAC8 deacetylation activity at 50 uM using AMC-Fluor-de-Lys-HDAC8 as substrate measured after 10 mins by reverse phase HPLC method relative to control
Homo sapiens [3] = species on record: Homo sapiens; assay: Activation of HDAC deacetylation activity in human HeLa nuclear extract at 50 uM using AMC-Fluor-de-Lys-HDAC8 as substrate measured after 5 mins by reverse phase HPLC method relative to control
Homo sapiens [4] = species on record: Homo sapiens; assay: Activation of HDAC deacetylation activity in human HeLa nuclear extract at 50 uM using AMC less CH3CONH-RH-(Nepsilon-acetyl-lysine)-(Nepsilon-acetyl-lysine)-CONH2 as substrate measured after 10 mins by reverse phase HPLC method relative to control
[5] = molecular target: T1, Histone deacetylase 8 (Homo sapiens); assay: Activation of human HDAC8 deacetylation activity assessed as decrease in substrate Kcat at 50 uM using AMC less CH3CONH-FG-(Nepsilon-acetyl-lysine)-FSW-CONH2 as substrate measured after 1.5 mins by reverse phase HPLC method relative to control; design: scale not given: the % may be the effect or the level left
[6] = molecular target: T1, Histone deacetylase 8 (Homo sapiens); assay: Activation of human HDAC8 deacetylation activity assessed as reduction in substrate Km at 50 uM using AMC-Fluor-de-Lys-HDAC8 as substrate measured after 1.5 mins by reverse phase HPLC method relative to control
[7] = molecular target: T1, Histone deacetylase 8 (Homo sapiens); assay: Activation of human HDAC8 deacetylation activity assessed as reduction in substrate Km at 50 uM using AMC less CH3CONH-FG-(Nepsilon-acetyl-lysine)-FSW-CONH2 as substrate measured after 1.5 mins by reverse phase HPLC method relative to control
[8] = molecular target: T1, Histone deacetylase 8 (Homo sapiens); assay: Activation of human HDAC8 deacetylation activity assessed as reduction in substrate Kcat at 50 uM using AMC-Fluor-de-Lys-HDAC8 as substrate measured after 1.5 mins by reverse phase HPLC method relative to control
[9] = molecular target: T1, Histone deacetylase 8 (Homo sapiens); assay: Activation of human HDAC8 deacetylation activity assessed as ratio of Kcat to Km for substrate at 50 uM using AMC-Fluor-de-Lys-HDAC8 as substrate measured after 1.5 mins by reverse phase HPLC method relative to control
[10] = molecular target: T1, Histone deacetylase 8 (Homo sapiens); assay: Activation of human HDAC8 deacetylation activity assessed as ratio of Kcat to Km for substrate at 50 uM using AMC less CH3CONH-FG-(Nepsilon-acetyl-lysine)-FSW-CONH2 as substrate measured after 1.5 mins by reverse phase HPLC method relative to control

SMILES | fold change (FC) [1] | fold change (FC) [2] | fold change (FC) (Homo sapiens [3]) | fold change (FC) (Homo sapiens [4]) | Activity [5] | fold change (FC) [6] | fold change (FC) [7] | fold change (FC) [8] | fold change (FC) [9] | fold change (FC) [10]
O=C(Nc1ccc(C(F)(F)F)cc1)C(F)(F)F | 1.4 | 1.1 | 0.93 | 0.64 |  |  |  |  |  | 
O=C(NC(=S)Nc1ccccc1)c1ccccc1 | 0.5 | 2.2 | 0.69 | 0.58 |  |  |  |  |  | 
CC(C)(C)OC(=O)N[C@@H](CCCCNC(=O)CBr)C(=O)Nc1ccccc1 | 5.6 | 2.8 | 1.09 | 1.22 | < 40% | 3.5 | 3.6 | 13 | 3.7 | 2.6
CC(=O)Nc1cccc(C(F)(F)F)c1 | 1.3 | 1.7 | 0.89 | 0.81 |  |  |  |  |  | 
O=C(Nc1ccccc1C(F)(F)F)C(F)(F)F | 1.2 | 1.4 | 0.87 | 1.22 |  |  |  |  |  | 
CC(=O)Nc1ccc(C(F)(F)F)cc1 | 1.4 | 1.7 | 0.93 | 0.83 |  |  |  |  |  | 
O=C(Nc1cccc(C(F)(F)F)c1)C(F)(F)F | 2.7 | 1.7 | 0.96 | 0.54 |  |  |  |  |  | 
CC(=O)Nc1ccccc1C(F)(F)F | 1.5 | 1.2 | 0.98 | 1.45 |  |  |  |  |  | 

Source: ChEMBL document CHEMBL4028837, “Acetanilide and bromoacetyl-lysine derivatives as activators for human histone deacetylase 8” (Bioorg Med Chem Lett, 2017)
